{
  "source": "patent US20030078304A1",
  "about": "“Method of inhibiting the expression of inflammatory cytokines and chemokines” (priority 2000, published 2003)",
  "tested_on": "NF-κB",
  "assay": "NF-κB-dependent luciferase reporter gene assay in UV-C exposed HeLa cells",
  "type": "cell-based, human",
  "protocol": "HeLa cells were transfected with a NF-κB-dependent reporter gene and exposed to UV-C 24 hours after transfection. Pretreatment with Astaxanthin was done 3 hours prior to irradiation, where indicated. Cells were harvested and luciferase activity was measured 14-18 hours following exposure. The ratio between Firefly and Renilla luciferase activity is represented as fold activation over the activity in unstimulated control cells. The standard error is based on two identical experiments.\nThe human […] cell line Hela Tet/off was cultured in MEM alpha medium supplemented with 10% fetal calf serum, penicillin and streptomycin (Gibco Grand Island, N.Y.). The day before transfection, cells were plated on 6 cm dishes in a medium containing 2.5% fetal calf serum. On the day of transfection, the cell culture medium was changed to fresh medium (2.5% fetal calf serum).\nA stock solution of Astaxanthin was prepared by dissolving synthetic Astaxanthin (Sigma) in 99.6% ethanol. The concentration of Astaxanthin was measured by spectrophotometry, and the absorbance maximum at 474-479 run was used to calculate the concentration, according to the formula: Absmax/210.\nThe 6XκB-Luc plasmid contains a firefly luciferase reporter gene driven by 6 NF-κB binding sites cloned upstream of a TK promoter (Meyer et al. 1993). […]",
  "data": [
    {"smiles": "CC1=C(/C=C/C(C)=C/C=C/C(C)=C/C=C/C=C(C)/C=C/C=C(C)/C=C/C2=C(C)C(=O)[C@@H](O)CC2(C)C)C(C)(C)C[C@H](O)C1=O", "note": "[Astaxanthin]", "values": [
      {"measurement": "effect on the activation of NF-κB effected by UV exposure", "setting": "HeLa cells transfected with NF-κB-dependent reporter gene, UV-C, pretreatment 3 hours prior to irradiation (FIG. 1)", "value": "inhibits the activation of NF-κB effected by UV exposure"},
      {"measurement": "repression of UV-C induced activation of NF-κB-dependent reporter gene", "setting": "HeLa cells, 6xκB-Luc reporter, UV-C 10 J/m^2, Astaxanthin pretreatment 3 hours at the highest concentration, luciferase 14-18 hours after exposure", "value": "~3", "unit": "fold"}
    ]}
  ]
}
